Assay results published in patent publication US20060165654A1, “Peptides and recombinant proteins mimicking interferons” (priority 2002, published 2006).
Entries after “also recorded” stand apart in the source; their conditions may differ.

How the values were obtained:
[1] = tested on: virus of mouse encephalomiocarditis; experiment: antiviral activity: suppression of cytopathic action of test-virus in L-41 and VERO cell cultures; type: cell-based; settings: L-41 and VERO cells
Protocol: FIG. 7 Antiviral properties of de novo proteins and interferons in cell cultures L41 (human mononuclear leucosis) and VERO (kidney of green simian). The activity of preparations was determined as a minimal concentration leading to a 50% delay of the virus of mouse encephalomiocarditis cytopathic action. The average values of three independent experiments are shown ± the standard deviations.
FIG. 8 Antiviral properties of de novo proteins in the cell cultures L-41 (human mononuclear leucosis) and VERO (kidney of green simian). […] The average values of three independent experiments are shown ± standard deviations.
The average values of three independent experiments are shown ± standard deviations.
Antiviral and cytotoxity properties of obtained proteins. Testing of antiviral activity of the proteins was carried out in vitro monitoring the ability of the preparation to suppress cytopathic action of the test-virus (Ershov F., 1996, Interferon system: norm and pathology, Moscow, Medicine). Two cell lines were used in experiments: cells of human mononuclear leucosis L41 and green simian kidney VERO.
Antiviral properties of synthetic linear peptides. Testing of antiviral activity of the synthetic linear peptides was carried out in vitro monitoring the ability of the preparation to suppress cytopathic action of the test-virus (Ershov F., 1996, Interferon system: norm and pathology, Moscow, Medicine). Two cell lines were used in experiments: cells of human mononuclear leucosis L-41 and green simian kidney VERO.

[2] = tested on: human T-lymphoblastoid cell line MT4; settings: cited from earlier work

Substance	antiviral activity (in words) [1]	concentrations suppressing proliferation of MT4 [2]	antiviral activity compared with human interferon-α2 ([1]; minimal concentration giving 50% delay of cytopathic action)
LKDRHDF (human interferon alfa2)	demonstration of antiviral activity	–	–
LKEKKYSP (human interferon alfa2) [reference compound]	demonstration of antiviral activity	10^−9-10^−8 M	–
LKEKKYSP-Ser-Ser-LKDRHDF (LKEKKYSPSSLKDRHDF; human interferon alfa2)	demonstration of antiviral activity	–	only one order of magnitude less; also recorded: practically completely reproduces antiviral properties of human interferon-α2
